Reference: patent publication US20250194594A1, “ATTRACTANT COTTON SEED BUG, OXYCARENUS Hyalinipennis, AND USES THEREOF” (The United States of America, as represented by the …, priority 2023, published 2025)
“Also recorded” adds a separate entry of the source.

Key:
cotton seed bugs (CSBs) = assay: Pheromone function assigned from the behavioral responses and VOC profiles; assay type: in vivo, Oxycarenus hyalinipennis; settings: summary statement; compounds not tested singly in the bioassays
[1] = tested on: cotton seed bug (CSB), Oxycarenus hyalinipennis; assay: Field test, attractants formulated in rubber septa in a cotton field with low CSB population; assay type: in vivo; settings: cotton field where CSB population was low, vs control (no treatment), listed as 4-oxo-E2-8: ald
Text: (§1) The mean number of O. hyalinippenis in different treatment traps (captures/week) in field trials were compared by one-way analysis of variance (ANOVA) followed by Ryan-Einot-Gabriel-Welsch F test (SPSS 10.0 for Windows) following D George and P Mallery (2002, “SPSS for Windows Step by Step: A Simple Guide and Reference,” 11.0 Update. 4th Edition, Allyn & Bacon; Boston, Massachusetts, USA). All statistical comparisons were considered for significance at α=0.05.
(§2) Different pheromones or mixtures of pheromones were tested for their ability to attract CSB in the field.
In a separate field test, a mixture of E2-octenal, 4-oxo-E2-octenal, and E2-octenyl acetate in a ratio of 1:2:7, as well as the single attractant component, 4-oxo-E2-8: ald, were tested. The compounds were formulated in rubber septa in a cotton field where the population of CSB was low. CSB formed the majority of insects caught in the traps. Trap specificity was much higher than in the test described above.

[2] = cited from earlier work
[3] = tested on: cotton seed bug (CSB), Oxycarenus hyalinipennis; assay: Field test, pheromones in plastic vials in a cotton field with high CSB population; assay type: in vivo; settings: counted after 1 hour, compared among treatment groups including control (no treatment)
Text: as §1, §2
Field tests were conducted by adding one or more of the identified pheromones to plastic vials and placing the vials in a cotton field with high CSB population, followed by counting the CSB caught after one (1) hour.
A field test was conducted using E2-octenal, E2-octenyl acetate, and a mixture of E2-octenal and E2-octenyl acetate. The compounds were placed in plastic vials in a cotton field with a high population of CSB. Many other bugs were also captured in the traps (numbers were not included).

[4] = cited from earlier work; remark: listed apart in the source

| SMILES | pheromone function (cotton seed bugs (CSBs)) | other results |
| --- | --- | --- |
| CCCCCCC/C=C/C=O (single isomer, unassigned) [(E)-2-Decenal] | performed as oviposition pheromones | – |
| CCC(=O)/C=C/C=O [4-Oxo-(E)-2-hexenal] | performed as CSB attraction pheromones | – |
| CCCCC(=O)/C=C/C=O [4-Oxo-(E)-2-octenal] | – | CSB trapped compared with control [1]: trapped significantly more CSB than control; also recorded: attract CSB |
| CCC/C=C/C=O [(E)-2-Hexenal] | performed as CSB attraction pheromones | – |
| CCC/C=C/COC(C)=O [(E)-2-Hexenyl acetate, (E)-2-hexen-1-yl acetate] | performed as CSB attraction pheromones | – |
| CCCCC/C=C/C=O [(E)-2-Octenal] | performed as CSB attraction pheromones; also recorded: performed as oviposition pheromones | solubility (in water) [2]: practically insoluble; number of CSB caught in the traps [3]: not significantly different; basicity (based on its pKa) [4]: extremely weak basic (essentially neutral) |
| CCCCC/C=C/COC(C)=O [(E)-2-Octenyl acetate] | performed as CSB attraction pheromones; also recorded: performed as oviposition pheromones | number of CSB caught in the traps [3]: not significantly different |
| CC(C)=CCC[C@]1(C)[C@H]2CC=C(C)[C@@H]1C2 [(E)-α-Bergamotene] | performed as alarm (repellent) pheromones | – |
| C=C/C(C)=C/C/C=C(/C)CCC=C(C)C [(Z, E)-α-Farnesene] | performed as alarm (repellent) pheromones | – |
| CC1=CCC2CC1C2(C)C (stereo not drawn) [α-Pinene, 2,6,6-Trimethylbicyclo[3.1.1]hept-2-ene] | performed as CSB attraction pheromones | – |
